# Experiments:
# [1] = molecular target: T1, Human Progestin Receptor in T47-D Cells (Homo sapiens, UniProt P06401); experiment: Whole cell receptor binding (competition with 3H-R5020) in T-47D human breast carcinoma cells; settings: for IC50: 50% displacement of 3H-R5020, T-47D cells, overnight incubation; for Relative Binding % Prog.: RBA relative to internal standard progesterone; for Relative Binding % Prog. / Relative Binding % R5020: ratio of concentrations causing 50% displacement, compared in the same assay; for Relative Binding % R5020: RBA relative to reference standard R5020 (promegestone)
# T1 construct: The human breast carcinoma (T-47D) cell line was used to assess RBA for progestin receptor; host or cells: T-47D human breast carcinoma cells
# T1 sequence (P06401 1-933): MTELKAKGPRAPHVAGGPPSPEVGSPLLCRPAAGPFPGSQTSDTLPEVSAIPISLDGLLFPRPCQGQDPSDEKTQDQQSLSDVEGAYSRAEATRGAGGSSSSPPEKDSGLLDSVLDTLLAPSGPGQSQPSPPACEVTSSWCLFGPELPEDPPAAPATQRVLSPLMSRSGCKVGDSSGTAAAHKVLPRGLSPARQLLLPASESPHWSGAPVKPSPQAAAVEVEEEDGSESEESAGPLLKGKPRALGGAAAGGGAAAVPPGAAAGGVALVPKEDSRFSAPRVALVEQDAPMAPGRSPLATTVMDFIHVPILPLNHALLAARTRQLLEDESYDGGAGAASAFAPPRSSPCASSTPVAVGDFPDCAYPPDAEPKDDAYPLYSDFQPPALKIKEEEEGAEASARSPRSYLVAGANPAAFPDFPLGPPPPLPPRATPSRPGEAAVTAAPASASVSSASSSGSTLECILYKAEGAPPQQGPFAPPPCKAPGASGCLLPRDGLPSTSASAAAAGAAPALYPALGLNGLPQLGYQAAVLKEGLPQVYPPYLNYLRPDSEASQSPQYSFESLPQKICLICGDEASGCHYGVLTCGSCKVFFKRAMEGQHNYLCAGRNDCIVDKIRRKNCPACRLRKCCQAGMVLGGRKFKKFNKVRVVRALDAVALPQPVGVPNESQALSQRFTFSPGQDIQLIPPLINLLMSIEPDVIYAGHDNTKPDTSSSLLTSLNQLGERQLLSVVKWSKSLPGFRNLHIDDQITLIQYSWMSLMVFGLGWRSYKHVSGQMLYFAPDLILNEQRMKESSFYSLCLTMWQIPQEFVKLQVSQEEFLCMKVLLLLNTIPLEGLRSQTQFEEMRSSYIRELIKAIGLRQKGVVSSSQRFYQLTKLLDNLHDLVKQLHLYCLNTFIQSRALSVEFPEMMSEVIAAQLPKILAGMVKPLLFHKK
# Procedure: The biological activity of the compounds of this invention was examined by means of whole cell receptor binding studies.
# Receptor Binding. The affinity of the compounds for hormone receptors was determined by standard procedures similar to those that have been described, inter alia, by Wagner et al., Proc. Natl. Acad. Sci., 93, 8739-8744 (1996) for COS-1 cells. The human breast carcinoma (T-47D) cell line was used to assess RBA for progestin receptor. The cell line used was obtained from ATCC (American Type Culture Collection) and stored frozen at -135° C. until a week before the assays were conducted. The cells were thawed and cultured to achieve the desired cell number (5 to 7 days on average). They were maintained at 37° C. with growth media until they were 90-100% confluent, at which time they were recovered from the growth flasks and dispersed into individual wells of a 12-well tissue culture plate at a count of 4×10^5 cells in one mL medium per well. After 24 h the cells adhered to the bottom of the 12-well plates. At this point, the receptor binding assay procedure was initiated by the addition of test or standard compounds with 3H-R5020 (promegestone). After incubation overnight, medium was removed, the cells were washed and solubilized and radioactivity was measured by liquid scintillation spectrometry. Nonspecific binding was determined by incubation with excess of unlabeled R5020 and subtracted from total binding to calculate specific binding. The progesterone binding assay was conducted with several concentrations of the reference standard (promegestone, R-5020) and an internal standard (progesterone). These hormones were allowed to compete with tritiated competitor (3H-promegestone, 3H-R5020) to estimate relative binding. Test steroids were tested at three or more concentrations between 0.01 to 1000 nM. If 50% displacement of the 3H-R5020 from the receptor was not achieved by the unknown, higher or lower concentrations were tested, as needed, to obtain that goal. All compounds were tested in duplicate for at least two assays. The percentage of specifically bound 3H-R5020 for each concentration tested was calculated and binding curves were generated by plotting the percentage of specifically bound 3H-R-5020 versus the concentration of the competitor. The relative binding activity (RBA) of the test compounds, relative to the reference standard (R5020) as well as the internal standard, was determined from the ratio of concentrations causing 50% displacement for each unknown and standard and expressed as a percentage value. These concentrations were obtained by graphical interpolation of the plots.
# human progestin receptor = settings: % the affinity of progesterone; Smith et al., J. Biol. Chem. 1974; cited from earlier work
Compound,IC50 [1],Relative Binding % Prog. [1],Relative Binding % R5020 [1],"affinity relative to progesterone, binding to human progestin receptor (human progestin receptor)"
"CN(C)c1ccc([C@H]2C[C@@]3(C)[C@@H](CC[C@@]34CCC[S+]4[O-])[C@@H]3CCC4=CC(=O)CCC4=C32)cc1 (single isomer, unassigned) [Compound 21a, 11β-[4-(N,N-Dimethylamino)phenyl]-1'-oxo-spiro[estr-4,9-diene-17β,2'-thiolane]-3-one]",3.1 nM,825%,128%,–
"CN(C)c1ccc([C@H]2C[C@@]3(C)[C@@H](CC[C@@]34CCC[S+]4[O-])[C@@H]3CCC4=CC(=O)CCC4=C32)cc1 (single isomer, unassigned) [Compound 21b, 11β-[4-(N,N-Dimethylamino)phenyl]-1'-oxo-spiro[estr-4,9-diene-17β,2'-thiolane]-3-one]",6.6 nM,260%,43%,–
CSC1CCC2C3CCC4=CC(=O)CCC4(C)C3CCC12C (stereo not shown) [17-thiomethylandrost-4-en-3-one],–,–,–,25%
"CN(C)c1ccc([C@H]2C[C@@]3(C)[C@@H](CC[C@@]34CCCS4)[C@@H]3CCC4=CC(=O)CCC4=C32)cc1 [Compound 12, 11β-[4-(N,N-Dimethylamino)phenyl]-spiro[estra-4,9-diene-17β,2'-thiolane]-3-one]",2.8 nM,983%,105%,–
"CSc1ccc([C@H]2C[C@@]3(C)[C@@H](CC[C@@]34CCCS4)[C@@H]3CCC4=CC(=O)CCC4=C32)cc1 [Compound 14, 11β-[4-(Methylthio)phenyl]-spiro[estra-4,9-diene-17β,2'-thiolane]-3-one]",4.1 nM,651%,49%,–
"CN(C)c1ccc([C@H]2C[C@@]3(C)[C@@H](CC[C@@]34CCCS4(=O)=O)[C@@H]3CCC4=CC(=O)CCC4=C32)cc1 [Compound 24, 1',1'-Dioxo-11β-[4-(N,N-dimethylamino)phenyl]-spiro[estra-4,9-diene-17β,2'-thiolane]-3-one]",13 nM,199%,29%,–

# Further lines, with some results ahead:
IC50 [1],Relative Binding % Prog. [1],Relative Binding % R5020 [1],Compound,"affinity relative to progesterone, binding to human progestin receptor (human progestin receptor)"
183 nM,19%,2%,"CC(=O)c1ccc([C@H]2C[C@@]3(C)[C@@H](CC[C@@]34CCC[S+]4[O-])[C@@H]3CCC4=CC(=O)CCC4=C32)cc1 (single isomer, unassigned) [Compound 22a, 11β-(4-Acetylphenyl)-1'-oxo-spiro[estra-4,9-diene-17β,2'-thiolane]-3-one]",–
135 nM,25%,2%,"CC(=O)c1ccc([C@H]2C[C@@]3(C)[C@@H](CC[C@@]34CCC[S+]4[O-])[C@@H]3CCC4=CC(=O)CCC4=C32)cc1 (single isomer, unassigned) [Compound 22b, 11β-(4-Acetylphenyl)-1'-oxo-spiro[estra-4,9-diene-17β,2'-thiolane]-3-one]",–
